Reference: article PMC8899470 (Frontiers in Pharmacology, 2022)
Where “and” joins values, the source holds several entries; their conditions need not be identical. Equal values may be shown once.

How the values were obtained:
PLpro of MERS-CoV = conditions: ref Cho et al., 2013; cited from earlier work
PLpro of SARS-CoV = conditions: ref Cho et al., 2013; cited from earlier work
SARS CoV-2 PLpro = SARS CoV-2 PLpro (Severe acute respiratory syndrome coronavirus 2, UniProt P0DTD1); assay: biochemical; type: biochemical; conditions: for IC50: IC50, PLpro 0.3 µM, LKGGAMC substrate 40 µM, Tris-HCl pH 7.3, triplicate
SARS-CoV = conditions: Vero E6 cells; ref Lin et al., 2018; cited from earlier work
Vero E6 cells = conditions: cited from earlier work

## CCN(CC)C(=S)SSC(=S)N(CC)CC [Disulfiram]
PLpro of MERS-CoV
  Inhibitory effect on PLpro (mode): competitive inhibitory effect
PLpro of SARS-CoV
  Inhibitory effect on PLpro (mode): competitive inhibitory effect

## Cc1ccc(NC2CCNCC2)cc1C(=O)N[C@H](C)c1cccc2[nH]c3ccccc3c12 [hit 1]
SARS CoV-2 PLpro
  IC50: 2.4 ± 0.6 µM

## Cc1ccc(NC2CCN(C(F)(F)F)CC2)cc1C(=O)N[C@H](C)c1cccc2ccccc12 [hit 4]
SARS CoV-2 PLpro
  IC50: < 1 µM and 0.8 µM

## CCOC(=O)c1ccc(-c2cccc([C@@H](C)NC(=O)c3cc(NC4CNC4)ccc3C)c2)s1 [hit 2]
SARS CoV-2 PLpro
  IC50: < 1 µM and 0.6 µM
SARS CoV-2 PLpro; ratio of IC50 values against PLpro
  Inhibitory activity relative to positive control GRL0617: about 4 times

## Cc1ccc(NC2COC2)cc1C(=O)N[C@H](C)c1csc2ccccc12 [hit 3]
SARS CoV-2 PLpro
  IC50: 2.1 ± 0.5 µM

## Cc1ccc(N)cc1C(=O)N[C@H](C)c1cccc2ccccc12 [GRL0617]
SARS-CoV
  Inhibition of SARS-CoV replication: inhibit the replication process
Vero E6 cells
  Cytotoxicity: no cytotoxicity
